Source: patent US20200375949A1, “BISPHENOL COMPOUNDS” (THE TRUSTEES OF THE UNIVERSITY OF PENNSYLVANIA, priority 2017, published 2020)
≈ marks a conversion by molar mass, not a printed value. Where “and” joins values, the source holds several entries; their conditions need not be identical. Equal entries are not always repeated. Where two headings read alike, the source gives them in different places.

Tests used:
[1] = test system: red blood cells (mechanically defibrinated sheep blood); test: Hemolysis assay (cell lysis); format: cell-based; set-up: red blood cell lysis: unit not given here; settings: for red blood cell lysis: 1 hour, 37° C.; for concentration at which the membrane is perturbed: stated under the cell lysis example
Procedure: The effects of the compounds described herein to lyse cells was evaluated in this example. Hemolysis assays were performed on mechanically defibrinated sheep blood (Hemostat Labs: DSB030). 1.5 mL of blood was placed into a microcentrifuge tube and centrifuged at 10,000 rpm for ten minutes. The supernatant was removed and then the cells were resuspended with 1 mL of phosphate-buffered saline (PBS). The suspension was centrifuged as previously, the supernatant was removed, and cells were resuspended two more times. The final cell suspension was diluted twentyfold with PBS. The twentyfold suspension dilution was then aliquoted into microcentrifuge tubes containing compound serially diluted in PBS. TritonX (1% by volume) served as a positive control (100% lysis marker) and sterile PBS served as a negative control (0% lysis marker). Samples were then placed in an incubator at 37° C. and shaken at 200 rpm. After 1 hour, the samples were centrifuged at 10,000 rpm for ten minutes. The absorbance of the supernatant was measured with a UV spectrometer at a 540 nm wavelength. See, e.g., Peng, Chem. Comm. 2011, 47, 4896-4898.

[2] = test system: Streptococcus mutans wild-type strain UA159; test: MIC assay, S. mutans; format: cell-based
Source text: (§1) Streptococcus mutans wild-type strain UA159 was provided by Dr. Bettina Buttaro from Temple University Medical School, Philadelphia, Pa. Streptococcus gordonii strain DL1 and Streptococcus sanguinis strain 10904 were provided by Dr. Robert G. Quivey from University of Rochester Medical School. Streptococcus gordonii strain DL1 may be obtained from the American Type Culture Collection under accession #49818. Streptococcus sanguinis strain 10904 may be obtained from the National Collection of Type Cultures under accession #10904. Bacteria were routinely maintained on in Bacto™ Todd-Hewitt (TH) agar plates and liquid cultures were grown in Bacto™ Todd-Hewitt broth (THB). For growth of biofilms, THB was supplemented with 0.1% sucrose. Incubation was stagnant at 37° C. Bacterial strains Methicillin-Resistant Staphylococcus aureus HPV107, Staphylococcus epidermidis Fussel [NCTC 11047, R. Hugh 2466], Streptococcus sobrinus SL1 [CCM 6070, CNCTC 9/89], Enterococcus faecalis NCTC 775 [DSM 20478, JCM 8726, NCDO 581, Tissier], Pseudomonas aeruginosa [CCEB 481, MDB strain BU 277, NCIB 8295, NCPPB 1965, NCTC 10332, NRRL B-771, R. Hugh 815], Serratia marcescens BS 303 [CDC 813-60, NCIB 9155, NCTC 10211], and Acinetobacter baumannii 2208 [81, DSM 6974] were purchased from the American Type Culture Collection.
(§2) Stock solutions of compounds (10 mM) were serial diluted (200 μL, 100 μL, 50 μL, 10 μL, and 2 μL) in THB media in flat-bottom 96-well microtiter plates (total volume 100 μL). Bacterial cultures were grown in brain heart infusion or nutrient broth media to mid-exponential phase, back diluted to an OD of 0.1 and then inoculated into the 96-well plate to reach a final volume of 200 μL. Plates were inoculated at 37° C. in 5% CO2 for 20-24 hours upon which time wells were evaluated visually for bacterial growth and/or the wells' OD630 was evaluated via spectrophotometer. […] DMSO controls corresponding to each test concentration were performed. Biological triplicates were performed to confirm results.

membrane = test: SYTOX green cell permeabilization assay; format: cell-based; settings: SYTOX green nucleic acid stain, FIGS. 1A-1F
Procedure: This example was performed to measure cell viability (i.e., cell permeabilization) by using a molecule that fluoresces when bound to DNA. The assay performed was a SYTOX™ assay green nucleic acid stain using compounds 1H and 2E. Specifically, when the membrane was perturbed, the molecule entered the cell, bound to DNA and fluoresced. The positive and negative controls were a quaternary ammonium compound (QAC; 12,3,2,3,12) and vancomycin, respectively. See the results shown in, e.g., FIGS. 1A-1F.

[3] = test system: Streptococcus sanguinis strain 10904; test: MIC assay, S. sanguinis; format: cell-based; settings: 5% CO2, 37° C., 20-24 hours
Source text: as §1, §2

[4] = test system: Streptococcus mutans wild-type strain UA159; settings: original assays in aerobic environment; cited from earlier work
[5] = test system: Streptococcus mutans wild-type strain UA159; test: MIC assay, S. mutans; format: cell-based; settings: read-out: MIC S. mutans, aerobic conditions
[6] = test system: Streptococcus gordonii strain DL1; test: MIC assay, S. gordonii; format: cell-based; settings: 5% CO2, 37° C., 20-24 hours
Source text: as §1, §2

S. mutans = S. mutans MBC assay; format: cell-based, Streptococcus mutans; settings: for MBC: Streptococcus mutans, 3-log reduction in CFU count (99.9% bacterial death); for bacteriostatic or bactericidal properties (regrow analysis, MIC vs MBC): S. mutans
Procedure: MIC assay was performed (above) and each well diluted (log-dilution) into a new 96-well microtiter plate. Five μL from each dilution was then plated on THB agar plates and incubated for 24 hours. Colony counts were performed to determine MBC which is defined as the concentration which there is a 3-log reduction in CFU count which corresponds to 99.9% bacterial death.

S. mutans biofilm = S. mutans biofilm model / crystal violet; format: cell-based, Streptococcus mutans; settings: at concentrations of 250 μM or lower
Procedure: Stock solutions of the compounds (10 mM) were serial diluted in THB media supplemented with 0.1% sucrose (w/v) in flat-bottom 96-well microtiter plates (total volume 100 μL). Bacterial cultures were grown to mid-exponential phase, back diluted to an OD of 0.1 and then inoculated into the 96-well plate to reach a final volume of 200 μL. Plates were incubated at 37° C. in 5% CO2 for 24 hours (early stage biofilm) upon which time wells were evaluated visually for bacterial growth. DMSO controls corresponding to each test concentration were performed. Biological triplicates were performed to confirm results. Biofilm assay was performed (above) and wells are washed with 200 μL of DI H2O and dried for 24 hours at 37° C. Dried plates were incubated for 10 minutes at room temperature with 50 μL of 1% w/v crystal violet (25% ethanol in H2O). Excess crystal violet was removed via aspiration. 200 μL of DI H2O was added to each well and aspirated (repeat until all excess crystal violet is removed). Plates were then inverted and dried at 37° C. for 3-5 hours. Crystal violet stain biofilm mass was dissolved with 200 μL of 95% ethanol, 100 μL of which was then transferred to a fresh flat-bottom 96-well plate for absorbance measurements at 595 nm. DMSO controls corresponding to each test concentration were performed. Biological triplicate was performed to confirm results. […]

[7] = Concentration 500 μM, TritonX 100% lysis, PBS 0% lysis
[8] = planktonic, 5% CO2, 37° C., 20-24 hours

Compound | red blood cell lysis ([1]; Concentration 0.25 μM) | red blood cell lysis ([1]; Concentration 0.5 μM) | red blood cell lysis ([1]; Concentration 1 μM) | red blood cell lysis ([1]; Concentration 2 μM) | red blood cell lysis ([1]; Concentration 4 μM) | red blood cell lysis ([1]; Concentration 8 μM) | red blood cell lysis ([1]; Concentration 16 μM) | red blood cell lysis ([1]; Concentration 32 μM) | red blood cell lysis ([1]; Concentration 63 μM) | red blood cell lysis ([1]; Concentration 125 μM) | red blood cell lysis ([1]; Concentration 250 μM) | red blood cell lysis [1, 7] | concentration at which the membrane is perturbed [1] | MIC [2, 8] | concentration at which the membrane is perturbed (membrane) | MIC [3] | MIC [6] | MBC (S. mutans) | bacteriostatic or bactericidal properties (regrow analysis, MIC vs MBC) (S. mutans) | also measured
CC(C)(C)c1ccc(Cc2ccc(C(C)(C)C)c(O)c2)cc1O [Compound 3N, 5,5′-methylenebis(2-(tert-butyl)phenol)] | 0.13 | −0.02 | −0.02 | −0.02 | 0.11 | −0.03 | −0.02 | 0.02 | 0.38 | 0.43 | 0.34 | 0.74 | 32 µM | 2 µM | 32 µM | – | – | – | – | –
C=CCc1ccc(O)c(-c2ccc(O)c(CC=C)c2)c1 [Compound A1, honokiol, reference compound] | – | – | – | – | – | – | – | – | – | – | – | – | – | 250 µM | – | 125 µM (≈ 33.3 µg/mL) | 125 µM (≈ 33.3 µg/mL) | – | – | MIC S. mutans, literature value [4]: 10 µg/mL (≈ 37.5 µM); MIC ([2]; 5% CO2-supplemented environment): 66.6 µg/mL; MIC [5]: 125 µM and 33.3 µg/mL; bactericidal activity (S. mutans; at concentrations of 250 μM or lower): not bactericidal; inhibition of biofilm growth (S. mutans biofilm): unable to inhibit biofilm growth
COC(=O)c1cc2c(-c3cc(C(C)C)c(O)c(C(C)C)c3)c(O)ccc2cc1O [Compound B10, Methyl 3,7-dihydroxy-8-(4-hydroxy-3,5-diisopropylphenyl)-2-naphthoate] | – | – | – | – | – | – | – | – | – | – | – | – | – | 32 µM | – | 8 µM (≈ 3.16 µg/mL) | 8 µM (≈ 3.16 µg/mL) | 32 µM (≈ 12.6 µg/mL) | – | –
CC(C)(C)c1cc(-c2c(O)ccc3cc(Br)ccc23)cc(C(C)(C)C)c1O [Compound B5, 6-Bromo-1-(3,5-di-tert-butyl-4-hydroxyphenyl)naphthalen-2-ol] | – | – | – | – | – | – | – | – | – | – | – | – | – | 8 µM | – | 4 µM (≈ 1.71 µg/mL) | 16 µM (≈ 6.84 µg/mL) | 125 µM (≈ 53.4 µg/mL) | bacteriostatic | –
Cc1cc(-c2c(O)ccc3ccccc23)cc(C(C)(C)C)c1O [Compound B9, 1-(3-(tert-Butyl)-4-hydroxy-5-methylphenyl)naphthalen-2-ol] | – | – | – | – | – | – | – | – | – | – | – | – | – | 32 µM | – | 32 µM (≈ 9.8 µg/mL) | 32 µM (≈ 9.8 µg/mL) | 32 µM (≈ 9.8 µg/mL) | – | –
CC(C)(C)c1ccc(CCc2ccc(C(C)(C)C)c(O)c2)cc1O [Compound C2, 5,5′-(Ethane-1,2-diyl)bis(2-(tert-butyl)phenol)] | 0.02 | 0.01 | −0.02 | −0.02 | −0.01 | −0.03 | −0.03 | 0.07 | 0.29 | 0.43 | 0.70 | 0.48 | 32 µM | 2 µM | 32 µM | 2.5 µM (≈ 0.816 µg/mL) | 1.25 µM (≈ 0.408 µg/mL) | 4 µM (≈ 1.31 µg/mL) | bactericidal | lysis of blood cells [1]: lyses blood cells at high concentrations
